{"source": "patent US20250171437A1", "about": "(Agios Pharmaceuticals,Inc., priority 2022, published 2025)", "molecular_target": "T1, human PAH with the R408W mutation (A375 R408W cells) (Homo sapiens, UniProt P00439, R408W)", "T1 construct": "expressed in transfected cells", "T1 sequence (P00439 1-452 R408W)": "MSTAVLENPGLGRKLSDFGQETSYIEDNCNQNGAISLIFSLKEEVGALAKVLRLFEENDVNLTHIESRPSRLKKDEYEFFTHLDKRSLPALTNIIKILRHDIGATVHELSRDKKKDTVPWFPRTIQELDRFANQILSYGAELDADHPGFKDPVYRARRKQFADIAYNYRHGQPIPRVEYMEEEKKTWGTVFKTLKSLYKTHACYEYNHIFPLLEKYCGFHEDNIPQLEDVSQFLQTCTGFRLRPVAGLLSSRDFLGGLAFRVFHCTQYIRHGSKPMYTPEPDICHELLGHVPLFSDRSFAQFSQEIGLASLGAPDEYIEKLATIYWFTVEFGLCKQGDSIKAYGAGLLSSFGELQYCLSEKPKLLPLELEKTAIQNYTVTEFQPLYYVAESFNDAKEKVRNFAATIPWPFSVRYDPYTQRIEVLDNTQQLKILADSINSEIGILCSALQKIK", "test": "Cell Based Phenylalanine Flux Assay", "conditions": "24 hrs with compound, then 20 μM sepiapterin and 800 μM 13C9,15N-Phenylalanine for 4 hours, 13C-Tyrosine by LC-MS, average where tested multiple times", "in_short": "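Puromycin-selected A375 line, lentiviral hPAH R408W; cmpd 24 h, 37 °C, 5% CO2, 0.5% DMSO; then 20 μM sepiapterin + 800 μM 13C9,15N-Phe, 4 h; media extracted in 80% MeCN; 13C-Tyr by LC-MS; AC50 from 10-pt curves.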", "key": {"[1]": {"conditions": "A375 cells expressing R408W PAH"}}}
{"smiles": "Cc1cccc2nc([C@H]3c4nc[nH]c4CCN3C(=O)c3nnc(-c4cnn(C(F)F)c4)o3)oc12", "note": "[Example 871, (R)-(5-(1-(difluoromethyl)-1H-pyrazol-4-yl)-1,3,4-oxadiazol-2-yl)(4-(7-methylbenzo[d]oxazol-2-yl)-6,7-dihydro-1H-imidazo[4,5-c]pyridin-5(4H)-yl)methanone]", "values": [{"measurement": "AC50", "setting": "A375 R408W cells", "result": "1 to 5", "unit": "µM"}]}
{"smiles": "Cc1ccc2oc([C@H]3c4nc[nH]c4CCN3C(=O)c3ocnc3C(F)F)nc2c1", "note": "[Example 138, (R)-(4-(difluoromethyl)oxazol-5-yl)(4-(5-methylbenzo[d]oxazol-2-yl)-6,7-dihydro-1H-imidazo[4,5-c]pyridin-5(4H)-yl)methanone]", "values": [{"measurement": "AC50", "setting": "A375 R408W cells", "result": "≤ 0.5", "unit": "µM"}]}
{"smiles": "COc1cccc2oc([C@H]3c4nc[nH]c4CCN3C(=O)c3ocnc3C(F)F)nc12", "note": "[Example 430, (R)-(4-(difluoromethyl)oxazol-5-yl)(4-(4-methoxybenzo[d]oxazol-2-yl)-6,7-dihydro-1H-imidazo[4,5-c]pyridin-5(4H)-yl)methanone]", "values": [{"measurement": "AC50", "setting": "A375 R408W cells", "result": "0.5 to 1", "unit": "µM"}]}
{"smiles": "Cn1cc(-c2ncc(C(=O)N3CCc4[nH]cnc4C3c3nc4ccc(Br)cc4o3)o2)cn1", "note": "(stereo not shown)", "values": [{"measurement": "AC50", "setting": "[1]", "result": "1 to 5", "unit": "µM"}]}
{"smiles": "COc1ccc2c(C(=O)N3CCc4[nH]cnc4[C@H]3c3nc4c(F)cccc4o3)cnn2c1", "note": "[Example 539, (S)-(4-(4-fluorobenzo[d]oxazol-2-yl)-6,7-dihydro-1H-imidazo[4,5-c]pyridin-5(4H)-yl)(6-methoxypyrazolo[1,5-a]pyridin-3-yl)methanone]", "values": [{"measurement": "AC50", "setting": "A375 R408W cells", "result": "≤ 0.5", "unit": "µM"}]}
{"smiles": "CC(C)(O)c1nc(C(F)F)c(C(=O)N2CCc3[nH]cnc3[C@@H]2c2nc3cccc(OC(F)(F)F)c3o2)o1", "note": "[Example 530, (R)-(4-(difluoromethyl)-2-(2-hydroxypropan-2-yl)oxazol-5-yl)(4-(7-(trifluoromethoxy)benzo[d]oxazol-2-yl)-6,7-dihydro-1H-imidazo[4,5-c]pyridin-5(4H)-yl)methanone]", "values": [{"measurement": "AC50", "setting": "A375 R408W cells", "result": "0.5 to 1", "unit": "µM"}]}
{"smiles": "Cn1nc(Cl)nc1C(=O)N1CCc2[nH]cnc2[C@H]1c1nc2ccc(F)cc2o1", "note": "[Example 343, (S)-(3-chloro-1-methyl-1H-1,2,4-triazol-5-yl)(4-(6-fluorobenzo[d]oxazol-2-yl)-6,7-dihydro-1H-imidazo[4,5-c]pyridin-5(4H)-yl)methanone]", "values": [{"measurement": "AC50", "setting": "A375 R408W cells", "result": "1 to 5", "unit": "µM"}]}
{"smiles": "O=C(c1oc(N2CCC(F)CC2)nc1C(F)F)N1CCc2[nH]cnc2[C@@H]1c1nc2cc(F)ccc2o1", "note": "[Example 402, (R)-(4-(difluoromethyl)-2-(4-fluoropiperidin-1-yl)oxazol-5-yl)(4-(5-fluorobenzo[d]oxazol-2-yl)-6,7-dihydro-1H-imidazo[4,5-c]pyridin-5(4H)-yl)methanone]", "values": [{"measurement": "AC50", "setting": "A375 R408W cells", "result": "1 to 5", "unit": "µM"}]}
{"smiles": "Cc1ccc2nc(C3c4nc[nH]c4CCN3C(=O)c3nnc(-c4cn[nH]c4)o3)oc2c1", "note": "(stereo not shown)", "values": [{"measurement": "AC50", "setting": "[1]", "result": "1 to 5", "unit": "µM"}]}
{"smiles": "O=C(c1ccnn1C(F)(F)F)N1Cc2[nH]cnc2[C@H]1c1nc2ccccc2o1", "note": "[Example 953, (S)-(4-(benzo[d]oxazol-2-yl)-4,6-dihydropyrrolo[3,4-d]imidazol-5(1H)-yl)(1-(trifluoromethyl)-1H-pyrazol-5-yl)methanone]", "values": [{"measurement": "AC50", "setting": "A375 R408W cells", "result": "1 to 5", "unit": "µM"}]}
{"smiles": "Cc1ccc2oc(C3c4nc[nH]c4CCN3C(=O)c3nc(C)nn3C)nc2c1", "note": "(stereo not shown)", "values": [{"measurement": "AC50", "setting": "[1]", "result": "≥ 5", "unit": "µM"}]}
{"smiles": "O=C(c1oc(-c2ccc(F)cn2)nc1C(F)F)N1CCc2[nH]cnc2[C@H]1c1nc2cccc(F)c2o1", "note": "[Example 632, (S)-(4-(difluoromethyl)-2-(5-fluoropyridin-2-yl)oxazol-5-yl)(4-(7-fluorobenzo[d]oxazol-2-yl)-6,7-dihydro-1H-imidazo[4,5-c]pyridin-5(4H)-yl)methanone]", "values": [{"measurement": "AC50", "setting": "A375 R408W cells", "result": "≤ 0.5", "unit": "µM"}]}
{"smiles": "COc1ccc(-c2nnc(C(=O)N3CCc4[nH]cnc4C3c3nc4cc(C(F)(F)F)ccc4o3)o2)nc1", "note": "(stereo not shown)", "values": [{"measurement": "AC50", "setting": "[1]", "result": "1 to 5", "unit": "µM"}]}
{"smiles": "Cc1cccc2nc(C3c4nc[nH]c4CCN3C(=O)c3ccnn3C3CC3)oc12", "note": "(stereo not shown)", "values": [{"measurement": "AC50", "setting": "[1]", "result": "1 to 5", "unit": "µM"}]}
{"smiles": "COc1ccc2oc([C@H]3c4nc[nH]c4CCN3C(=O)c3ocnc3C(F)F)nc2c1", "note": "[Example 342, (R)-(4-(difluoromethyl)oxazol-5-yl)(4-(5-methoxybenzo[d]oxazol-2-yl)-6,7-dihydro-1H-imidazo[4,5-c]pyridin-5(4H)-yl)methanone]", "values": [{"measurement": "AC50", "setting": "A375 R408W cells", "result": "0.5 to 1", "unit": "µM"}]}
{"smiles": "CC(C)(O)c1nc(C(F)(F)F)c(C(=O)N2CCc3[nH]cnc3[C@@H]2c2nc3cccc(F)c3o2)o1", "note": "[Example 254, (R)-(4-(7-fluorobenzo[d]oxazol-2-yl)-6,7-dihydro-1H-imidazo[4,5-c]pyridin-5(4H)-yl)(2-(2-hydroxypropan-2-yl)-4-(trifluoromethyl)oxazol-5-yl)methanone]", "values": [{"measurement": "AC50", "setting": "A375 R408W cells", "result": "≤ 0.5", "unit": "µM"}]}
{"smiles": "Cn1cnnc1C(=O)N1CCc2[nH]cnc2C1c1nc2cccc(F)c2o1", "note": "(stereo not shown)", "values": [{"measurement": "AC50", "setting": "[1]", "result": "1 to 5", "unit": "µM"}]}
{"smiles": "Cc1ccc2nc([C@@H]3c4nc[nH]c4CCN3C(=O)c3nnc(-c4ccn(C(F)F)n4)o3)oc2c1", "note": "[Example 703, (S)-(5-(1-(difluoromethyl)-1H-pyrazol-3-yl)-1,3,4-oxadiazol-2-yl)(4-(6-methylbenzo[d]oxazol-2-yl)-6,7-dihydro-1H-imidazo[4,5-c]pyridin-5(4H)-yl)methanone]", "values": [{"measurement": "AC50", "setting": "A375 R408W cells", "result": "0.5 to 1", "unit": "µM"}]}
{"smiles": "CC(C)(O)c1nc(C(F)(F)F)c(C(=O)N2CCc3[nH]cnc3[C@H]2c2nc3cccc(F)c3o2)o1", "note": "[Example 253, (S)-(4-(7-fluorobenzo[d]oxazol-2-yl)-6,7-dihydro-1H-imidazo[4,5-c]pyridin-5(4H)-yl)(2-(2-hydroxypropan-2-yl)-4-(trifluoromethyl)oxazol-5-yl)methanone]", "values": [{"measurement": "AC50", "setting": "A375 R408W cells", "result": "≤ 0.5", "unit": "µM"}]}
{"smiles": "CC(O)c1nc(Br)c(C(=O)N2CCc3[nH]cnc3[C@@H]2c2nc3cc(F)ccc3o2)o1", "note": "(single isomer, unassigned) [Example 224]", "values": [{"measurement": "AC50", "setting": "A375 R408W cells", "result": "1 to 5", "unit": "µM"}]}
{"smiles": "Cc1ccc2oc([C@H]3c4nc[nH]c4CCN3C(=O)c3oc(-c4cnn(C)c4)nc3C(F)F)nc2c1", "note": "[Example 772, (R)-(4-(difluoromethyl)-2-(1-methyl-1H-pyrazol-4-yl)oxazol-5-yl)(4-(5-methylbenzo[d]oxazol-2-yl)-6,7-dihydro-1H-imidazo[4,5-c]pyridin-5(4H)-yl)methanone]", "values": [{"measurement": "AC50", "setting": "A375 R408W cells", "result": "0.5 to 1", "unit": "µM"}]}
{"smiles": "O=C(c1ocnc1C(F)(F)F)N1CCc2[nH]cnc2[C@@H]1c1nc2ccccc2o1", "note": "[Example 798, (R)-(4-(benzo[d]oxazol-2-yl)-6,7-dihydro-1H-imidazo[4,5-c]pyridin-5(4H)-yl)(4-(trifluoromethyl)oxazol-5-yl)methanone]", "values": [{"measurement": "AC50", "setting": "A375 R408W cells", "result": "0.5 to 1", "unit": "µM"}]}
{"smiles": "O=C(c1nnc(-c2ccccn2)o1)N1CCc2[nH]cnc2[C@@H]1c1nc2cc(F)cc(F)c2o1", "note": "[Example 579, (R)-(4-(5,7-difluorobenzo[d]oxazol-2-yl)-6,7-dihydro-1H-imidazo[4,5-c]pyridin-5(4H)-yl)(5-(pyridin-2-yl)-1,3,4-oxadiazol-2-yl)methanone]", "values": [{"measurement": "AC50", "setting": "A375 R408W cells", "result": "≤ 0.5", "unit": "µM"}]}
{"smiles": "Cn1ccc(-c2nc(C(F)F)c(C(=O)N3CCc4[nH]cnc4[C@@H]3c3nc4cccc(F)c4o3)o2)n1", "note": "[Example 592, (R)-(4-(difluoromethyl)-2-(1-methyl-1H-pyrazol-3-yl)oxazol-5-yl)(4-(7-fluorobenzo[d]oxazol-2-yl)-6,7-dihydro-1H-imidazo[4,5-c]pyridin-5(4H)-yl)methanone]", "values": [{"measurement": "AC50", "setting": "A375 R408W cells", "result": "0.5 to 1", "unit": "µM"}]}
{"smiles": "O=C(c1cnn2cc(N3CCC(F)CC3)ccc12)N1CCc2[nH]cnc2[C@@H]1c1nc2cccc(F)c2o1", "note": "[Example 370, (R)-(4-(7-fluorobenzo[d]oxazol-2-yl)-6,7-dihydro-1H-imidazo[4,5-c]pyridin-5(4H)-yl)(6-(4-fluoropiperidin-1-yl)pyrazolo[1,5-a]pyridin-3-yl)methanone]", "values": [{"measurement": "AC50", "setting": "A375 R408W cells", "result": "1 to 5", "unit": "µM"}]}
{"smiles": "Cn1cc(-c2nnc(C(=O)N3CCc4[nH]cnc4[C@H]3c3nc4cc(F)cc(F)c4o3)o2)cn1", "note": "[Example 665, (S)-(4-(5,7-difluorobenzo[d]oxazol-2-yl)-6,7-dihydro-1H-imidazo[4,5-c]pyridin-5(4H)-yl)(5-(1-methyl-1H-pyrazol-4-yl)-1,3,4-oxadiazol-2-yl)methanone]", "values": [{"measurement": "AC50", "setting": "A375 R408W cells", "result": "≤ 0.5", "unit": "µM"}]}
{"smiles": "O=C(c1nnc(-c2ccn(C(F)F)n2)o1)N1CCc2[nH]cnc2[C@@H]1c1nc2ccccc2o1", "note": "[Example 845, (R)-(4-(benzo[d]oxazol-2-yl)-6,7-dihydro-1H-imidazo[4,5-c]pyridin-5(4H)-yl)(5-(1-(difluoromethyl)-1H-pyrazol-3-yl)-1,3,4-oxadiazol-2-yl)methanone]", "values": [{"measurement": "AC50", "setting": "A375 R408W cells", "result": "1 to 5", "unit": "µM"}]}
{"smiles": "Cc1ccc2oc(C3c4nc[nH]c4CCN3C(=O)c3nnc(C)o3)nc2c1", "note": "(stereo not shown)", "values": [{"measurement": "AC50", "setting": "[1]", "result": "≥ 5", "unit": "µM"}]}
{"smiles": "O=C(c1ocnc1C(F)F)N1CCc2[nH]cnc2[C@@H]1c1nc2c(F)cc(F)cc2o1", "note": "[Example 302, (R)-(4-(4,6-difluorobenzo[d]oxazol-2-yl)-6,7-dihydro-1H-imidazo[4,5-c]pyridin-5(4H)-yl)(4-(difluoromethyl)oxazol-5-yl)methanone]", "values": [{"measurement": "AC50", "setting": "A375 R408W cells", "result": "1 to 5", "unit": "µM"}]}
{"smiles": "O=C(c1nnc(-c2ccccn2)o1)N1Cc2[nH]cnc2[C@@H]1c1nc2ccccc2o1", "note": "[Example 938, (R)-(4-(benzo[d]oxazol-2-yl)-4,6-dihydropyrrolo[3,4-d]imidazol-5(1H)-yl)(5-(pyridin-2-yl)-1,3,4-oxadiazol-2-yl)methanone]", "values": [{"measurement": "AC50", "setting": "A375 R408W cells", "result": "1 to 5", "unit": "µM"}]}
{"smiles": "O=C(c1nnc(-c2cnn(C(F)F)c2)o1)N1CCc2[nH]cnc2[C@H]1c1nc2cccc(F)c2o1", "note": "[Example 875, (S)-(5-(1-(difluoromethyl)-1H-pyrazol-4-yl)-1,3,4-oxadiazol-2-yl)(4-(7-fluorobenzo[d]oxazol-2-yl)-6,7-dihydro-1H-imidazo[4,5-c]pyridin-5(4H)-yl)methanone]", "values": [{"measurement": "AC50", "setting": "A375 R408W cells", "result": "≤ 0.5", "unit": "µM"}]}
